Assay results taken from patent US20240132484A1, “BROAD SPECTRUM ANTIVIRAL COMPOUNDS TARGETING THE SKI COMPLEX” (priority 2020, published 2024).
Values joined by “and” are separate entries in the source; they are usually repeats but may differ in a detail not shown here. Equal values may be shown once. “Also recorded” adds a separate entry of the source. Read-outs that look alike come from different tables or passages of the source.

Experiments:
SARS2 = assay type: cell-based, SARS-CoV-2; details: for Infection Data, Average, Mean percentage infection relative to DMSO control: Average of Exp 1 (SMW491) and Exp 2 (SMW492); for Infection Data, Percentage Infection Relative to Appropriate DMSO Control: single well, avg background subtraction
cells (nuclei count) = details: for Toxicity Data, Average, Mean percentage relative to DMSO control: Average of Exp 1 (SMW491) and Exp 2 (SMW492); for Toxicity Data, Percentage Relative to Appropriate DMSO Control: single well

Compound: COc1ccc(CNCCc2ccccc2F)c(OCC(O)CN2CCN(C)CC2)c1 (stereo not shown) [SILCS45]
- SARS2 antiviral activity (SARS2): improved activity over SILCS41; also recorded: improved properties over SILCS46
- Infection Data, Average, Mean percentage infection relative to DMSO control (SARS2; n=4, 1 uM): 54.68%
- Infection Data, Average, Mean percentage infection relative to DMSO control (SARS2; n=4, 5 uM): −1.00%
- Infection Data, Average, Mean percentage infection relative to DMSO control (SARS2; n=4, 10 uM): 3.88%
- Infection Data, Average, Mean percentage infection relative to DMSO control (SARS2; n=4, 25 uM): −1.28%
- Infection Data, Average, Mean percentage infection relative to DMSO control (SARS2; n=4, 50 uM): 3.57%
- Infection Data, Percentage Infection Relative to Appropriate DMSO Control (SARS2; Exp 1 (SMW491), 1 uM): 102.92% and 112.49%
- Infection Data, Percentage Infection Relative to Appropriate DMSO Control (SARS2; Exp 1 (SMW491), 5 uM): −1.31% and −0.48%
- Infection Data, Percentage Infection Relative to Appropriate DMSO Control (SARS2; Exp 1 (SMW491), 10 uM): 0.12% and −3.09%
- Infection Data, Percentage Infection Relative to Appropriate DMSO Control (SARS2; Exp 1 (SMW491), 25 uM): −0.41% and −2.68%
- Infection Data, Percentage Infection Relative to Appropriate DMSO Control (SARS2; Exp 1 (SMW491), 50 uM): 1.17% and −2.53%
- Infection Data, Percentage Infection Relative to Appropriate DMSO Control (SARS2; Exp 2 (SMW492), 1 uM): 3.72% and −0.43%
- Infection Data, Percentage Infection Relative to Appropriate DMSO Control (SARS2; Exp 2 (SMW492), 5 uM): −2.43% and 0.22%
- Infection Data, Percentage Infection Relative to Appropriate DMSO Control (SARS2; Exp 2 (SMW492), 10 uM): 7.69% and 10.80%
- Infection Data, Percentage Infection Relative to Appropriate DMSO Control (SARS2; Exp 2 (SMW492), 25 uM): 0.00% and −2.03%
- Infection Data, Percentage Infection Relative to Appropriate DMSO Control (SARS2; Exp 2 (SMW492), 50 uM): 7.94% and 7.68%
- Percentage Inhibition Average 1 μM (SARS2; SARS2, 1 μM): 45.32%
- Screening data (Relative infection to DMSO controls) Average 1 μM (SARS2; SARS2, 1 μM, 100=DMSO control): 54.68
- Percentage Inhibition Average 5 μM (SARS2; SARS2, 5 μM): 101.00%
- Screening data (Relative infection to DMSO controls) Average 5 μM (SARS2; SARS2, 5 μM, 100=DMSO control): −1.00
- Percentage Inhibition Average 10 μM (SARS2; SARS2, 10 μM): 96.12%
- Screening data (Relative infection to DMSO controls) Average 10 μM (SARS2; SARS2, 10 μM, 100=DMSO control): 3.88
- Percentage Inhibition Average 25 μM (SARS2; SARS2, 25 μM): 101.28%
- Screening data (Relative infection to DMSO controls) Average 25 μM (SARS2; SARS2, 25 μM, 100=DMSO control): −1.28
- Percentage Inhibition Average 50 μM (SARS2; SARS2, 50 μM): 96.43%
- Screening data (Relative infection to DMSO controls) Average 50 μM (SARS2; SARS2, 50 μM, 100=DMSO control): 3.57
- Average (relative infection to DMSO over the 5 tested concentrations) (SARS2; SARS2, average over 1 to 50 uM, 100=DMSO control): 11.97
- SARS2 antiviral activity (SARS2; listed as D45): more potent than D46
- Relative cell count to DMSO controls, Average 1 μM (cells (nuclei count); 1 μM, toxicity data, 100=DMSO control): 116.96
- Relative cell count to DMSO controls, Average 5 μM (cells (nuclei count); 5 μM, toxicity data, 100=DMSO control): 123.47
- Relative cell count to DMSO controls, Average 10 μM (cells (nuclei count); 10 μM, toxicity data, 100=DMSO control): 131.34
- Relative cell count to DMSO controls, Average 25 μM (cells (nuclei count); 25 μM, toxicity data, 100=DMSO control): 119.79
- Relative cell count to DMSO controls, Average 50 μM (cells (nuclei count); 50 μM, toxicity data, 100=DMSO control): 125.46
- Toxicity Data, Average, Mean percentage relative to DMSO control (cells (nuclei count); n=4, 1 uM): 116.96%
- Toxicity Data, Average, Mean percentage relative to DMSO control (cells (nuclei count); n=4, 5 uM): 123.47%
- Toxicity Data, Average, Mean percentage relative to DMSO control (cells (nuclei count); n=4, 10 uM): 131.34%
- Toxicity Data, Average, Mean percentage relative to DMSO control (cells (nuclei count); n=4, 25 uM): 119.79%
- Toxicity Data, Average, Mean percentage relative to DMSO control (cells (nuclei count); n=4, 50 uM): 125.46%
- Toxicity Data, Percentage Relative to Appropriate DMSO Control (cells (nuclei count); Exp 1 (SMW491), 1 uM): 94% and 101%
- Toxicity Data, Percentage Relative to Appropriate DMSO Control (cells (nuclei count); Exp 1 (SMW491), 5 uM): 121% and 114%
- Toxicity Data, Percentage Relative to Appropriate DMSO Control (cells (nuclei count); Exp 1 (SMW491), 10 uM): 111% and 127%
- Toxicity Data, Percentage Relative to Appropriate DMSO Control (cells (nuclei count); Exp 1 (SMW491), 25 uM): 95% and 123%
- Toxicity Data, Percentage Relative to Appropriate DMSO Control (cells (nuclei count); Exp 1 (SMW491), 50 uM): 129% and 121%
- Toxicity Data, Percentage Relative to Appropriate DMSO Control (cells (nuclei count); Exp 2 (SMW492), 1 uM): 139% and 133%
- Toxicity Data, Percentage Relative to Appropriate DMSO Control (cells (nuclei count); Exp 2 (SMW492), 5 uM): 133% and 126%
- Toxicity Data, Percentage Relative to Appropriate DMSO Control (cells (nuclei count); Exp 2 (SMW492), 10 uM): 137% and 151%
- Toxicity Data, Percentage Relative to Appropriate DMSO Control (cells (nuclei count); Exp 2 (SMW492), 25 uM): 135% and 127%
- Toxicity Data, Percentage Relative to Appropriate DMSO Control (cells (nuclei count); Exp 2 (SMW492), 50 uM): 126%
- Relative cell count to DMSO controls, Average (for correlation analysis) (cells (nuclei count); average value over the 5 tested concentrations (1 to 50 uM)): 123.40
